Source: PMC6474793 (Biochemistry, 2018)

Legend:
BauB = BauB (Acinetobacter baumannii, UniProt Q76HK0); assay: BauB binding by intrinsic Trp fluorescence quenching
[1] = Fe binding in CAS assay; reported previously; cited from earlier work

C[C@@H]1ON(CCc2c[nH]cn2)C(=O)[C@H]1NC(=O)c1cccc(O)c1O [compound 1, acinetobactin]
Kd (BauB): 0.3 ± 0.1 µM | CAS (+/-) [1]: +
